The test system of assay [1] is Tau phosphorylation at Thr212 (pThr212) in HEK293T cells transfected with DYRK1A and MAPT. Put plainly: phosphoTau (Thr212) AlphaLISA tau phosphorylation cell assay. The format is cell-based. Conditions: HEK-293T, HEK293T cells transiently transfected with human DYRK1A and MAPT, compound treatment 18-24 hours, read-out: pTau (Thr212) EC50. The method, then:
Representative compounds were screened using the assay procedure for tau phosphorylation activity described below.
HEK293T cells (ATCC, CRL3216) cultured in DMEM (Thermo Fisher Scientific, 10566024) supplemented with 10% FBS (Corning, 35-011-CV) and Penicillin/Streptomycin (Thermo Fisher Scientific, 15140163) were seeded in a 75 cm^2 flask at 8.1 × 10^6 cells/flask. The HEK293T cells were then transiently transfected with 5 µg DYRK1A (NM_001396) human untagged clone (OriGene, SC314641) and 2.5 µg MAPT (441 a.a. Tau gene) (NM_005910) human untagged clone (OriGene, TP313312) using Lipofectamine 3000 (Thermo Fisher Scientific, L30000015) and incubated for 20-30 hours in a humidified incubator at 37° C. and 5% CO^2. Post-incubation, HEK293T cells transfected with the DYRK1A and MAPT expression vectors were harvested and seeded in BioCoat poly-D lysine coated 96-well plates (Corning, 354461) at 3 × 10^4 cells/well.
The above synthesized compounds were screened using the cell assay procedure to assess decreased Tau phosphorylation at Thr212 (pThr212) described below.
Each compound was dissolved in DMSO (Sigma-Aldrich, D8418-100 mL) as a 10 mM stock. 10 mM stocks were serially diluted 1:3, 10-point dose-response curve and added to the cells with a final concentration ranging from 20 µM to 1.1 nM. Cells were treated with compounds in duplicate and incubated for 18-24 hours in a humidified incubator at 37° C. and 5% CO^2.
Following the overnight compound treatment, cells were lysed with 1X Alpha Surefire Ultra Lysis Buffer (Perkin Elmer, ALSU-LB-100ML) complemented with 1X Halt Phosphatase Inhibitor Cocktail (Thermo Fisher Scientific, 78427) and 1X Halt Protease Inhibitor Cocktail (Thermo Fisher Scientific, 78438). Lysates were spun down at 12,000 g for 10 min to remove any cellular debris and 5 µL of lysates were dispensed into a 384-well Opti-Plate (Perkin Elmer, 6007290) for the measurement of Tau phosphorylation in the phosphoTau (Thr212) AlphaLISA assay. Donor antibody, biotinylated HT7Tau (Thermo Fisher Scientific, MN1000B), and acceptor antibody, pThr212Tau (Thermo Fisher Scientific, 44740G) were both added to the cell lysates at a final concentration of 3 nM and incubated for 1 hour at room temperature. Following incubation of the lysates with the donor and acceptor antibodies, anti-rabbit IgG(Fc specific) AlphaLISA acceptor beads (Perkin Elmer, AL104C) were added at a 10 ug/mL final concentration and incubated for 1 hour at room temperature protected from light. Lastly, AlphaScreen streptavidin donor beads (PerkinElmer, 6760002) were added at 40 ug/mL final concentration and incubated for 1 hour at room temperature protected from light. Plates were read at Ex= […], and Em=615 nm on the EnVision Multilabel Plate Reader (Perkin Elmer)
phospho-Tau (Thr212) AlphaLISA signal was used to plot, draw the curve fitting, and determine each compound’s EC50 in Prism (GraphPad).

The target in assay [2] is recombinant DYRK1A kinase (Homo sapiens (Human), UniProt Q13627). Put plainly: DYRK1A kinase assay (Ser/Thr 18 peptide Z-lyte FRET assay). Conditions: recombinant DYRK1A 0.25 µg/mL, ATP 15 µM, Ser/Thr peptide 18 4 µM, one hour at room temperature; table head prints EC50, method says IC50. In kind it is biochemical. In short, it runs like this: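 Recombinant human DYRK1A (0.25 µg/mL) with 15 µM ATP and 4 µM Ser/Thr 18 peptide was incubated 1 h at room temperature with compound (11-point, 10 µM top), in duplicate. Z-lyte FRET read-out (coumarin/fluorescein emission ratio) was converted to percent phosphorylation; IC50 from non-linear regression.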

As to `COCCn1c(C)nc2ccc(-c3ccn4nc(NC5CCC(F)(F)CC5)ncc34)nc21` [Compound 1179, N-(4,4-Difluorocyclohexyl)-5-(3-(2-methoxyethyl)-2-methyl-3H-imidazo [4,5-b]pyridin-5-yl)pyrrolo[2,1-f][1,2,4]triazin-2-amine], the EC50 in assay [1] amounted to 0.47 µM; in assay [2] it was 0.026 µM. For `Cc1nc2ccc(-c3ccn4nc(NC5CCC(F)(F)CC5)ncc34)nc2n1CC(F)F` [Compound 1108, N-(4,4-Difluorocyclohexyl)-5-(3-(2,2-difluoroethyl)-2-methyl-3H-imidazo [4,5-b]pyridin-5-yl)pyrrolo[2,1-f][1,2,4]triazin-2-amine] the same measures were 0.126 µM and 0.008 µM.

For `FC1(F)CCC(Nc2ncc3c(-c4ccc5nccn5c4)ccn3n2)CC1` [Compound 43, N-(4,4-Difluorocyclohexyl)-5-(imidazo[1,2-a]pyridin-6-yl)pyrrolo[2,1-f] [1,2,4]triazin-2-amine], the EC50 in assay [1] was 0.504 µM; in assay [2], 0.019 µM. For `Cc1nc2ncc(-c3ccn4nc(NCC(C)(C)F)ncc34)cc2n1C1CCOCC1` [Compound 784, N-(2-Fluoro-2-methylpropyl)-5-(2-methyl-1-(tetrahydro-2H-pyran-4-yl)-1H-imidazo[4,5-b]pyridin-6-yl)pyrrolo[2,1-f] [1,2,4]triazin-2-amine], in that order: 0.516 µM and 0.011 µM. `FC1(CNc2ncc3c(-c4cnc5nccn5c4)ccn3n2)COC1` [Compound 228, N-((3 -Fluorooxetan-3-yl)methyl)-5-(imidazo [1,2-a]pyrimidin-6-yl)pyrrolo [2,1-f][1,2,4]triazin-2-amine]: the values for the EC50 in assay [1] and in assay [2] were 0.292 µM and 0.013 µM, respectively. Take `FC1(F)CC(Nc2ncc3c(-c4ccc5nccn5c4)ccn3n2)C1` [Compound 23, N-(3,3-Difluorocyclobutyl)-5-(imidazo[1,2-a]pyridin-6-yl)pyrrolo[2,1-f] [1,2,4]triazin-2-amine]: the EC50 in assay [1] came to 0.794 µM; in assay [2], 0.028 µM. For `Cc1nc2ccc(-c3ccn4nc(NC5CCC(F)(F)CC5)ncc34)nc2n1CCF` [Compound 1037, N-(4,4-Difluorocyclohexyl)-5-(3-(2-fluoroethyl)-2-methyl-3H-imidazo[4,5-b]pyridin-5-yl)pyrrolo[2,1-f][1,2,4]triazin-2-amine] the same measures were 0.403 µM and 0.02 µM. In the case of `CO[C@H]1CC[C@@H](Nc2ncc3c(-c4ccc5nc(C)n(CC(F)F)c5n4)ccn3n2)CC1` [Compound 1111, 5-(3-(2,2-Difluoroethyl)-2-methyl-3H-imidazo[4,5-b]pyridin-5-yl)-N-(cis-4-methoxycyclohexyl)pyrrolo[2,1-f][1,2,4]triazin-2-amine], the EC50 worked out at 0.071 µM in assay [1] and 0.003 µM in assay [2]. `Cc1nc2ccc(-c3ccn4nc(NCC(C)(C)O)ncc34)nc2n1CC(F)F` [Compound 1833, 1-((5-(3-(2,2-Difluoroethyl)-2-methyl-3H-imidazo[4,5-b]pyridin-5-yl)pyrrolo[2,1-f][1,2,4]triazin-2-yl)amino)-2-methylpropan-2-ol]: the EC50 in assay [2] is 0.008 µM. For the compound `CO[C@H]1C[C@@H](Nc2ncc3c(-c4ccc5nccnc5c4)ccn3n2)C1` [Compound 1375, N-(cis-3-Methoxycyclobutyl)-5-(quinoxalin-6-yl)pyrrolo[2,1-f][1,2,4]triazin-2-amine], the EC50 in assay [2] was 0.006 µM. The same measure, in the same setting: for `Cc1nc2ccc(-c3ccn4nc(N[C@H]5CC[C@@H](C(=O)N6CC(F)(F)C6)CC5)ncc34)nc2n1CC(F)F` [Compound 1950, (3,3-Difluoroazetidin-1-yl)(cis-4-((5-(3-(2,2-difluoroethyl)-2-methyl-3H-imidazo[4,5-b]pyridin-5-yl)pyrrolo[2,1-f][1,2,4]triazin-2-yl)amino)cyclohexyl)methanone] the value was 0.003 µM. Same read-out and setting: for `Cc1nc2ccc(-c3ccn4nc(N[C@@H]5CCOC[C@@H]5O)ncc34)nc2n1CC(F)F` [Compound 1865, (3R,4R)-4-((5-(3-(2,2-Difluoroethyl)-2-methyl-3H-imidazo[4,5-b]pyridin-5-yl)pyrrolo[2,1-f][1,2,4]triazin-2-yl)amino)tetrahydro-2H-pyran-3-ol] the value was 0.02 µM; for `Cc1nc2ccc(-c3ccn4nc(N[C@H]5CC[C@@H](C(=O)N(C)C)CC5)ncc34)nc2n1CC(F)F` [Compound 1845, cis-4-((5-(3-(2,2-Difluoroethyl)-2-methyl-3H-imidazo[4,5-b]pyridin-5-yl)pyrrolo[2,1-f][1,2,4]triazin-2-yl)amino)-N,N-dimethylcyclohexane-1-carboxamide], 0.004 µM. Same read-out and setting: next, `Cc1nc2ccc(-c3ccn4nc(N[C@H]5CCCOC5)ncc34)nc2n1CC(F)F` [Compound 1864, (S)-5-(3-(2,2-Difluoroethyl)-2-methyl-3H-imidazo[4,5-b]pyridin-5-yl)-N-(tetrahydro-2H-pyran-3-yl)pyrrolo[2,1-f][1,2,4]triazin-2-amine]: 0.003 µM; `Cc1nc2ccc(-c3ccn4nc(NC5CCC6(CC5)OCCO6)ncc34)nc2n1CC(F)F` [Compound 1847]: 0.005 µM.

As to `Cc1nc2ccc(-c3ccn4nc(NC5CC(F)(F)C5)ncc34)nc2n1CC(F)F` [Compound 1088, N-(3,3-Difluorocyclobutyl)-5-(3-(2,2-difluoroethyl)-2-methyl-3H-imidazo [4,5-b]pyridin-5-yl)pyrrolo[2,1-f][1,2,4]triazin-2-amine], in assay [2], the EC50 turned out to be 0.004 µM. For `Cc1nc2ccc(-c3ccn4nc(N[C@@H]5CCOC[C@H]5F)ncc34)nc2n1CC(F)F` [Compound 1912, 5-(3-(2,2-Difluoroethyl)-2-methyl-3H-imidazo[4,5-b]pyridin-5-yl)-N-((3S,4R)-3-fluorotetrahydro-2H-pyran-4-yl)pyrrolo[2,1-f] [1,2,4]triazin-2-amine], the EC50 in assay [2] turned out to be 0.007 µM.

Consider `Cc1nc2ccc(-c3ccn4nc(NC[C@H](C)O)ncc34)nc2n1CC(F)F` [Compound 1832, (S)-1-((5-(3-(2,2-Difluoroethyl)-2-methyl-3H-imidazo[4,5-b]pyridin-5-yl)pyrrolo [2,1-f] [1,2,4]triazin-2-yl)amino)propan-2-ol], for which the EC50 in assay [2] was 0.006 µM. As to `CC(=O)N1C[C@@H](F)[C@@H](Nc2ncc3c(-c4ccc5nc(C)n(CC(F)F)c5n4)ccn3n2)C1` [Compound 1940, 1-((3S,4R)-3-((5-(3-(2,2-Difluoroethyl)-2-methyl-3H-imidazo[4,5-b]pyridin-5-yl)pyrrolo[2,1-f] [1,2,4]triazin-2-yl)amino)-4-fluoropyrrolidin-1-yl)ethan-1-one], the EC50 in assay [2] was 0.007 µM. In the case of `Cc1nc2ccc(-c3ccn4nc(N[C@H]5CC[C@@H](CO)CC5)ncc34)nc2n1CC(F)F` [Compound 1837, (cis-4-((5-(3-(2,2-Difluoroethyl)-2-methyl-3H-imidazo[4,5-b]pyridin-5-yl)pyrrolo[2,1-f][1,2,4]triazin-2-yl)amino)cyclohexyl)methanol], in assay [2], the EC50 stood at 0.006 µM. Still for that read-out and setting: for `COCCO[C@H]1CC[C@H](Nc2ncc3c(-c4cnc5nc(C)n(CC(F)F)c5c4)ccn3n2)CC1` [Compound 692, 5-(1-(2,2-Difluoroethyl)-2-methyl-1H-imidazo[4,5-b]pyridin-6-yl)-N-(trans-4-(2-methoxyethoxy)cyclohexyl)pyrrolo[2,1-f][1,2,4]triazin-2-amine] the value was 0.028 µM; for `CN1CC2(CC(Nc3ncc4c(-c5cnc6nccn6c5)ccn4n3)C2)C1` [Compound 283, 5-(Imidazo[1,2-a]pyrimidin-6-yl)-N-(2-methyl-2-azaspiro[3.3]heptan-6-yl)pyrrolo[2,1-f][1,2,4]triazin-2-amine], 0.02 µM.

(Values after patent publication US20230312605A1, “PYRROLO[2,1-F][1,2,4]TRIAZINES AND PREPARATION AND USES THEREOF” (BioSplice Therapeutics, Inc., priority 2021, published 2023).)
